For experiment [1], the target named is T1, DC-SIGN ECD oriented surface (Homo sapiens, UniProt Q9NNX6).
T1 construct: made in house
T1 sequence (Q9NNX6 59-404 limits assumed): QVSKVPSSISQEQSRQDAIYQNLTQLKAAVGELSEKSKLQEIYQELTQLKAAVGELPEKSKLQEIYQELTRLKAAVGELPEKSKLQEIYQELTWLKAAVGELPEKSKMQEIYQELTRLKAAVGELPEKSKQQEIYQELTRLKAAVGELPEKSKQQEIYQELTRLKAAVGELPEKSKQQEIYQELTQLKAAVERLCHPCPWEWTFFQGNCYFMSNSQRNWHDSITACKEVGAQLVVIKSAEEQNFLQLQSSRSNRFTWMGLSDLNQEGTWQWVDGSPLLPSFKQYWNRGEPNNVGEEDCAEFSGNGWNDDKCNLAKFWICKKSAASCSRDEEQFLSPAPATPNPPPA
Type of experiment: binding. Conditions: for Kd: SPR direct interaction on DC-SIGN ECD oriented surface, 25 mM Tris pH 8, 150 mM NaCl, 4 mM CaCl2, 4% DMSO, read-out: KD app; for ß factor (valency-corrected enhancement factor): from SPR KDapp, compound 3.1 as monovalent reference.

For experiment [2], the system named is DC-SIGN ECD. Also on record: method as in PMID 25648900. Conditions: SPR inhibition study (competition experiment); cited from earlier work.
Experiment [3] deals with T2, DC-SIGN ECD tetramer (Homo sapiens, UniProt Q9NNX6).
T2 sequence (Q9NNX6 59-404 limits assumed): T1 sequence (Q9NNX6 59-404 limits assumed)
The experiment can be described thus: Isothermal titration calorimetry (ITC). The experiment is classed as binding. Conditions: 25°C. The protocol: Thermodynamic parameters of multivalent binding as measured by isothermal titration calorimetry (ITC) were analyzed for compounds 3.2 and 3.6. Usually, ITC should provide, among other parameters, a “real” KD value; however, here we prefer to refer to a KDapp. Indeed, in these ITC experiments, we are not evaluating an affinity (a 1:1 unitary interaction, defined by KD) but rather an avidity phenomenon resulting from cumulative unitary bonds (each of whose individual contributions to the overall avidity cannot be deconvoluted). In addition, this avidity results from several multivalent modalities, a population of binding modes. Thus, the use of KDapp, instead of KD, emphasizes that the values determined here are the result of a complex phenomenon. The ITC binding analysis (Figure 3 and Table 2) is fully in agreement with the other biophysical techniques (see Table 2 for SPR and Figure 2C for FP of 3.6) with KDapp values equal to 58 ± 1 nM and 1.1 ± 0.2 μM for compounds 3.6 and 3.2, respectively. […] Increasing the local concentration close to the site is a major source of avidity generation. The ΔH difference is offset by a more unfavorable entropy for 3.6, which probably originates from the loss of degrees of freedom of construct extremities, six versus two, upon binding. Hydrophobic effect may also contribute, since the hydrophobic rod is shielded better from the solvent by the six units of ligand 1 in 3.6([35]) and exposing the hydrophobic parts and ordering the solvent around them is entropically costly. Combining the enthalpy and entropy effects, the ΔG for the hexavalent ligand improves by 10 kJ/mol. It is interesting to note that a stoichiometry of 1 for the complex with 3.6 is observed, supporting again the chelation mode. On the contrary, a stoichiometry n = 1.5 is observed for 3.2, with a KDapp in the μM range, which is compatible with a mixed chelation and clustering binding mode. […]
This graph is supplementary evidence of the multivalent binding, here chelate binding mode for 3.2, that occur over a DC-SIGN oriented surface.
3. Isothermal titration calorimetric analysis
ITC experiments were performed at 25°C using TA Instrument Nano Isothermal Titration Calorimeter Low volume (Nano ITC LV). Compound 3.6, 3.2 and DC-SIGN ECD were prepared in 25 mM Tris pH 8; 150 mM NaCl, 4 mM CaCl2, 4 % DMSO. Compounds (30 µM of 3.6 or 375 µM of 3.2) were stepwise injected (1.03 µL) to 190 µL of DC-SIGN ECD tetramer (respectively, 30 µM or 48.75 µM) in the cell. The blank titrations (compounds to buffer) were done for subtraction of dilution heat from the integrated data. […]
The free energy changes (∆G) and entropy (∆S) were calculated using equation (2): […]

For experiment [4], the target named is T3, DC-SIGN extracellular domain (human), Q9NNX6.
T3 chain: T1 sequence (Q9NNX6 59-404 limits assumed)
As to the kind of experiment: AUC; sedimentation velocity; DC-SIGN tetramer 4 uM alone (same peak with 5 nM to 500 nM compound 3.6); monomers to tetramer. Particulars: remark: other sources report otherwise.

Several values for one entry are separate records, joined by “and”; a condition that tells them apart may be missing. Identical values can stand only once.

Data on five molecules can be found in paper PMC10141607, “Powerful Avidity with a Limited Valency for Virus-Attachment Blockers on DC-SIGN: Combining Chelation and Statistical Rebinding with Structural Plasticity of the Receptor” (ACS Central Science, 2023).

With `O=C(NCc1ccc(CO)cc1)C1CC(OCCn2cc(COCC(COCCOCCn3cc(-c4cc(OCCOCCO)c(-c5cn(CCOCCOCC(COCc6cn(CCOC7CC(C(=O)NCc8ccc(CO)cc8)C(C(=O)NCc8ccc(CO)cc8)CC7OC7OC(CO)C(O)C(O)C7O)nn6)(COCc6cn(CCOC7CC(C(=O)NCc8ccc(CO)cc8)C(C(=O)NCc8ccc(CO)cc8)CC7OC7OC(CO)C(O)C(O)C7O)nn6)COCc6cn(CCOC7CC(C(=O)NCc8ccc(CO)cc8)C(C(=O)NCc8ccc(CO)cc8)CC7OC7OC(CO)C(O)C(O)C7O)nn6)nn5)cc4OCCOCCO)nn3)(COCc3cn(CCOC4CC(C(=O)NCc5ccc(CO)cc5)C(C(=O)NCc5ccc(CO)cc5)CC4OC4OC(CO)C(O)C(O)C4O)nn3)COCc3cn(CCOC4CC(C(=O)NCc5ccc(CO)cc5)C(C(=O)NCc5ccc(CO)cc5)CC4OC4OC(CO)C(O)C(O)C4O)nn3)nn2)C(OC2OC(CO)C(O)C(O)C2O)CC1C(=O)NCc1ccc(CO)cc1` (stereo not shown) [Compound 1.6], in experiment [1], the Kd is 0.17 µM and 0.172 µM; the “ß factor (valency-corrected enhancement factor)” value (“ß factor” below) stood at 38.

On to `[N-]=[N+]=NCCOC1CC(C(=O)NCc2ccc(CO)cc2)C(C(=O)NCc2ccc(CO)cc2)CC1OC1OC(CO)C(O)C(O)C1O` (stereo not shown) [Compound 1], for which the IC50 in experiment [2] is 270 µM.

For `O=C(NCc1ccc(CO)cc1)C1CC(OCCn2cc(-c3cc(OCCOCCO)c(C#Cc4cc(OCCOCCO)c(C#Cc5cc(OCCOCCO)c(-c6cn(CCOC7CC(C(=O)NCc8ccc(CO)cc8)C(C(=O)NCc8ccc(CO)cc8)CC7OC7OC(CO)C(O)C(O)C7O)nn6)cc5OCCOCCO)cc4OCCOCCO)cc3OCCOCCO)nn2)C(OC2OC(CO)C(O)C(O)C2O)CC1C(=O)NCc1ccc(CO)cc1` (stereo not shown) [Compound 3.2], in experiment [1], the Kd is 2.4 µM and 2.44 µM; the “ß factor” value is 8. Also, in experiment [3], the “n (stoichiometry)” value was 1.5 and 1.56 ± 0.04; the ΔH result was “–85.27 ± 4.48 kJ/mol”. Further, in experiment [3] (calculated), the TΔS result is recorded as “–54.4 kJ/mol”. In experiment [3] (one-site binding model, read-out: KDapp), the Kd was determined as 1.1 ± 0.2 µM. The IC50 in experiment [2] is 8 µM.

On to `O=C(NCc1ccc(CO)cc1)C1CC(OCCn2cc(COCC(COCCOCCn3cc(-c4cc(OCCOCCO)c(C#Cc5cc(OCCOCCO)c(-c6cn(CCOCCOCC(COCc7cn(CCOC8CC(C(=O)NCc9ccc(CO)cc9)C(C(=O)NCc9ccc(CO)cc9)CC8OC8OC(CO)C(O)C(O)C8O)nn7)(COCc7cn(CCOC8CC(C(=O)NCc9ccc(CO)cc9)C(C(=O)NCc9ccc(CO)cc9)CC8OC8OC(CO)C(O)C(O)C8O)nn7)COCc7cn(CCOC8CC(C(=O)NCc9ccc(CO)cc9)C(C(=O)NCc9ccc(CO)cc9)CC8OC8OC(CO)C(O)C(O)C8O)nn7)nn6)cc5OCCOCCO)cc4OCCOCCO)nn3)(COCc3cn(CCOC4CC(C(=O)NCc5ccc(CO)cc5)C(C(=O)NCc5ccc(CO)cc5)CC4OC4OC(CO)C(O)C(O)C4O)nn3)COCc3cn(CCOC4CC(C(=O)NCc5ccc(CO)cc5)C(C(=O)NCc5ccc(CO)cc5)CC4OC4OC(CO)C(O)C(O)C4O)nn3)nn2)C(OC2OC(CO)C(O)C(O)C2O)CC1C(=O)NCc1ccc(CO)cc1` (stereo not shown) [Compound 2.6], for which, in experiment [1], the Kd was determined as 0.14 ± 0.008 µM and the “ß factor” value stood at 47.

B1: DC-SIGN extracellular domain, Q9NNX6 59-404 (domain or fragment)
chain: T1 sequence (Q9NNX6 59-404 limits assumed)
Consider B1, for which, in experiment [4], the stoichiometry N is 4.

Broadly, the IC50 is the concentration that inhibits the measured activity by half. Broadly, the stoichiometry N is the number of molecules, sites or subunits per partner or assembly.
